Test results reported in patent US20250228824A1, “COMPOSITIONS AND METHODS FOR INHIBITION OF ITO AS TREATMENT FOR THE J WAVE SYNDROMES AND HYPOTHERMIA” (Lankenau Institute for Medical Research, priority 2021, published 2025).

Assays:
[1] = test system: coronary-perfused canine right ventricular (RV) wedge models of JWS, hypothermia; assay: Coronary-perfused RV wedge model of hypothermia (NS5806 plus decreasing temperature); conditions: NS5806 2 μM, 32.7±0.5° C., AR-787 10 μM, 20 min
Method: Transmural wedges were dissected from the base of the RV and LV. During the cannulation procedure, preparations were initially arterially perfused with cardioplegic solution. Next, the wedge preparations were placed in a tissue bath and perfused with a modified Krebs-Henseleit solution (K—H) bubbled with 95% O2/5% CO2 warmed to 37° C. The composition of K—H was (in mM): 118 NaCl, 4 KCl, 2 CaCl2, 1.2 MgSO4, 24 NaHCO3, 1.2 NaH2PO4, 2 Na Pyruvate and 10 D-Glucose. The perfusate was delivered at a constant pressure (45-50 mmHg). A transmural pseudo-ECG (ECG) was recorded using two Ag/AgCl half cells placed at ˜1 cm from the Epi (+) and Endo (−) surfaces along the same axis as the transmembrane action potential (AP) recordings. APs were simultaneously recorded from the immediate sub-Epi and M cell region (˜2-3 mm from the Endo surface) using floating glass microelectrodes. […] A detailed description of the arterially-perfused ventricular wedge preparation has been previously published.^5 ECG and AP signals were digitized and analyzed using Spike 2 for Windows (Cambridge Electronic Design, Cambridge, UK). […]
FIG. 9A-9C show the ability of AR-787 to suppress the ECG and arrhythmic manifestations in a model of hypothermia. […] The third grouping was recorded 10 minutes after lowering the temperature of the perfusate to 32.7±0.5° C. […] The fourth column was recorded 20 min after addition of AR-787 (10 μM).

[2] = test system: canine right ventricular epicardial myocytes; assay: Action potential recording (current clamp) in canine RV epicardial myocytes; type: cell-based; conditions: 10 μM
Method: Single myocytes were isolated from coronary-perfused canine right or left ventricular wedge preparations via enzymatic dissociation. Briefly, the wedge preparations were coronary perfused with nominally Ca^+2-free Tyrode's solution for a period of 15 min. They were then subjected to enzymatic digestion in nominally Ca^2+-free solution supplemented with 0.6 mg/ml collagenase (type II; Worthington) and 0.075 mg/ml protease (type XIV; Sigma) for 25-35 min. The wedge preparation was then perfused for 15 min with a taurine buffer solution containing (in mM): 108 NaCl, 10 HEPES, 11 D-glucose, 4 KCl, 1.2 MgSO4, 1.2 NaH2PO4, 50 taurine and 0.025 CaCl2. pH was adjusted to 7.4 using NaOH. After perfusion, thin slices of tissue were cut from the epicardial surface to obtain single epicardial cells as previously described.^6
Ito and APs were measured in isolated RV or LV myocytes. APs were measured in the current-clamp mode in the whole-cell configuration. APs were initiated using intracellular current injection and recorded continuously by means of Clampex software (Axon Instruments/Molecular Devices) at a sampling frequency of […]. Ito was measured using the Axopatch 200B-2 amplifier in V-Clamp mode.

With Cc1nc(-n2cccc2)sc1C(=O)N=c1[nH]c2ccccc2[nH]1 [AR-787, N-(1H-benzimidazol-2-yl)-4-methyl-2-pyrrol-1-yl-thiazole-5-carboxamide] the “hypothermia-induced AP notch, J wave, phase 2 reentry and pVT” value [1] was “diminished the action potential (AP) notch and J wave”, the “Action potential duration (APD)” value [2] was “tendency to abbreviate but this effect was not statistically significant” and the “effect on AP notch” value ([2]; 0.5 Hz) was “significantly suppressed the AP notch”.
